Results as given in patent publication US4452787A, “1-Substituted tricyclic quinazolinones having biological activity as tranquilizers” (Sandoz, Inc., priority 1982, dated 1984).

Test system: benzodiazepine receptors
Assay: Flunitrazepam Receptor Binding Assay, FBA Test No. 1 (3H-flunitrazepam displacement, calf caudate)
Details: final concentration 1×10^-6 M, lower = more displacement of 3H-flunitrazepam, 1 µM

SMILES	Response - % of Control (percent specifically bound compared to control)
CC1Cn2c(nc3ccc(Cl)cc3c2=O)N1Cc1ccccc1 (stereo not shown) [Example 2B]	5 % of Control
O=c1c2cc(Cl)ccc2nc2n1CCN2Cc1ccc(Cl)cc1 [Example 2E, 1-(p-chlorobenzyl)-7-chloro-2,3-dihydro-imidazo[2,1-b]quinazolin-5(1H)-one]	5 % of Control
CC(c1ccccc1)N1CCn2c1nc1ccc(Cl)cc1c2=O (single isomer, unassigned) [Example 2D]	15 % of Control
O=c1c2cc(Cl)ccc2nc2n1CCN2Cc1ccccc1 [Example 2A]	1 % of Control
